# Measurements as given in patent publication US20260199287A1, “LIPO-HYDROXAMIC ACID DERIVATIVE AND PHARMACEUTICAL USE THEREOF” (MediciBIO Co., Ltd, priority 2022, published 2026).
# Where two headings read alike, the source gives them in different places.
# Key:
# N-cadherin = test: Real-time PCR, N-cadherin mRNA; assay type: cell-based, human; conditions: corneal dystrophy-like environment
# Protocol: (§1) To identify the antioxidant mechanism of the lipo-hydroxamic acid derivative prepared above, real-time PCR was performed to detect the mRNA expression levels of the antioxidant enzymes downstream of Nrf2. First, human corneal endothelial cells were cultured at 3×10^5 cells per well in a 6-well plate coated with FNC Coating Mix for 18 to 24 hours, and the samples were treated. Four hours after the sample treatment, the corneal dystrophy-like environment was induced using the same method as described in Example 3-2. Twenty-four hours after inducing the corneal dystrophy-like environment, RNA was isolated from the cells using an RNA extraction kit (Bioneer, Daejeon), and cDNA was synthesized from […] of RNA using RT PreMix (Bioneer). Subsequently, real-time PCR was performed using GoTaq mater mix (Promega) containing SYBR green solution at 95° C. for 2 minutes, followed by 35 cycles at 95° C. for 15 seconds and at 60° C. for 1 minute.
# To identify the effect of the lipo-hydroxamic acid derivative prepared above on the expression of fibrosis- and cellular degeneration-related factors in corneal endothelial cells, real-time PCR was performed to detect mRNA expression levels of the fibrosis marker N-cadherin, and the cellular degeneration markers collagen I and fibronectin. The real-time PCR was performed in the same manner as in Example 5-2 above.
# [1] = Stability as an eye drop composition (HPLC peak area); assay type: physicochemical; conditions: for Peak area(%) Sample 1 / Peak area(%) Total amount of decomposed products: HPLC
# Protocol: In order to identify the stability of the lipo-hydroxamic acid derivative prepared above as an eye drop composition, the ratio (peak area, % o) of the active ingredient and decomposed product of the sample (Sample 1) was determined via HPLC analysis.
# cleaved caspase-3 = test: Western blot of cleaved caspase-3; assay type: cell-based, human; conditions: compared to the control group; environment induced 24 hours after sample treatment
# Protocol: To identify a mechanism of antioxidant activity of the lipo-hydroxamic acid derivative prepared above, Western blot was performed to detect protein expression of nuclear factor erythroid-2-related factor 2 (Nrf2; NCBI Gene ID: 4780) which is an antioxidant transcription factor. First, human corneal endothelial cells were cultured at 3×10^5 cells per well in a 6-well plate coated with FNC Coating Mix for 18 to 24 hours, and the samples were treated. Four hours after the sample treatment, the corneal dystrophy-like environment was induced in accordance with the method described in Example 3-2. […] Protein concentration in the supernatant was determined using a BCA kit (Thermo Fisher Scientific, MA, USA). […]
# To identify the effect of the lipo-hydroxamic acid derivative prepared above on apoptosis in corneal endothelial cells, Western blot was performed to detect the protein expression of cleaved caspase-3 which is a major protease involved in apoptosis. […] The anti-cleaved caspase-3 antibody (Asp175; Cell Signaling Technology) was used as the primary antibody, and the cleaved caspase-3 expression was detected by a chemiluminescence image analysis system.
# [2] = assay type: in vitro ADME
# ABCB6 = test: Real-time PCR, ABCB6 mRNA; assay type: cell-based, human; conditions: corneal dystrophy-like environment
# Protocol: as §1
# Smad3 = test: SMAD3 (pS423/pS425) ELISA; assay type: cell-based, human; conditions: compared to the control group (corneal dystrophy-like environment)
# Protocol: To identify the effect of the lipo-hydroxamic acid derivative prepared above on the expression of factors associated with fibrosis- and cellular degeneration-related factors in corneal endothelial cells, ELISA was performed to observe the activity of Smad3 protein. Analysis was carried out using SMAD3 (pS423/pS425) Human InstantOne ELISA kit (Thermo Fisher Scientific) according to the manufacturer's instructions. Human corneal endothelial cells were seeded in a 96-well plate at 2×10^4 cells per well, cultured for 24 hours, and then treated with the sample. Twenty-four hours after the sample treatment, the corneal dystrophy-like environment was induced in the same manner as in Example 3-2. Twenty-four hours after the induction, the cells were washed with PBS, lysed by adding 100 μL of lysis buffer mixture prepared by mixing the cell lysis reagent and buffer supplied in the kit. Subsequently, 50 μL of the cell lysate from each sample was added to the ELISA microplate wells. A 1:1 mixture of capture antibody and detection antibody, as provided in the kit, was prepared to form an antibody cocktail, and 50 μL of this mixture was added to each well. The plate was sealed and incubated at room temperature on a shaker at 300 rpm for 1 hour. […] The plate was then read using a microplate reader (Promega) at an absorbance of 450 nm.
# HO-1 = test: Real-time PCR, HO-1 mRNA; assay type: cell-based, human; conditions: corneal dystrophy-like environment
# Protocol: as §1
compound,measurement,setting,value
"O=C(CCCCC1CCSS1)NOCCO (stereo not drawn) [Sample 1, 5-[1,2]dithiolan-3-yl-pentanoic acid (2-hydroxy-ethoxy)-amide]",mRNA expression of N-cadherin,N-cadherin,significantly decreased in a concentration-dependent manner
same,Peak area(%) Sample 1,[1]; Day 1,99.36%
same,Peak area(%) Total amount of decomposed products,[1]; Day 1,0.62%
same,Peak area(%) Sample 1,[1]; Day 2,99.20%
same,Peak area(%) Total amount of decomposed products,[1]; Day 2,0.80%
same,Peak area(%) Sample 1,[1]; Day 3,99.36%
same,Peak area(%) Total amount of decomposed products,[1]; Day 3,0.64%
same,Peak area(%) Sample 1,[1]; Early stage,99.72%
same,Peak area(%) Total amount of decomposed products,[1]; Early stage,0.28%
same,stability in a liquid phase,[1]; up to day 3,good stability
same,protein expression of cleaved caspase-3,cleaved caspase-3,significantly decreased in a concentration-dependent manner
same,Peak area (%),[2]; 0.5 h,97.37%
same,Peak area (%),[2]; 2 h,92.65%
same,Peak area (%),[2]; 18 h,17.42%
same,Peak area (%),[2]; 24 h,6.00%
same,mRNA expression of ABCB6,ABCB6,significantly increased
same,activity of the Smad3 protein,Smad3,significantly decreased
same,mRNA expression of HO-1,HO-1,significantly increased
